Experimental data: US20020055174A1, “Complex for transferring an anionic substance of interest into a cell” (priority 2000, published 2002)
Entries after “also recorded” stand apart in the source; their conditions may differ. Bridge positions count the residues as written; N and C are the ends. Ends that are not written are not given here.

Tests used:
B6SJL mice = conditions: for gene transfer efficiency in the lung, in words: i.v., 50 or 60 μg pTG11236, day 1
Method: Indicated amounts of the luciferase expression plasmid pTG11236 were mixed with ppTG1 and /or pcTG90/DOPE. The resulting formulations were injected intramuscularly(30 μl), intravenously(250 μl) into mice or intratumorally (Renca tumors, 100 μgl). Muscles, tumors or organs were recovered at the indicated points of time, macerated and tested for luciferase activity with the luciferase assay kit from Promega.
60 μg or 30 μg of the plasmid pTG11236 were mixed with peptide ppTG1 and/or with a pcTG90/DOPE 1:2 mixture in 250 μl 5% glucose. After 20 min incubation at room temperature, the complexes were intravenously injected into B6SJL mice. Mice were sacrificed at day 1. The lungs were recovered, total protein was extracted and luciferase activity was analysed.
The potential of gene transfer with mono-component peptide vectors was investigated in vivo. Fifty or sixty μg of the luciferase expression plasmid pTG11236 were complexed with pcTG90/DOPE (1:2) [+/−] 10 in 250 μl 5% glucose (Meyer et al. 2000). The resulting lipoplex vector served as reference for gene transfer studies with pTG11236 complexed with ppTG1, ppTG20 and ppTG32 in 250 μl 5% glucose. Five mice per group were intravenously injected, the animals were sacrificed at day 1 after injection. Lungs were tested for luciferase activity.

[1] = Liposome leakage assay, POPC/cholesterol 3:2 liposomes; conditions: POPC/chol 3:2 liposomes
Method: Increasing amounts of the indicated peptides were incubated with POPC/Cholesterol (3:2 mol/mol) liposomes for 30 min at RT. Emitted fluorescence was plotted against peptide concentration. […] B) Liposome leakage activity with complexes of ppTG1 and the plasmid pTG11236 at pH7.
1-Palmitoyl-2-Oleoyl-phosphatidylcholine (POPC) liposomes were prepared by the repeated freeze-thaw method followed by extrusion (Olson et al., 1979, Biochim. Biophys. Acta 557, 19-23). Ten μ-moles of POPC in chloroform were placed in a glass tube and solvent was evaporated under reduced pressure using a Labconco Rapidvap vortex evaporator (Uniequip, Germany). The resulting lipid film was hydrated with 0.5 ml of an aqueous solution of calcein (lOOmM calcein, 3.75 eq. NaOH, 50mM NaCl). The lipid suspension was sonicated until the solution became clear using a sonic water bath (Bransonic 221, Branson Ultrasonics Corp., USA). Five cycles of freeze-thaw were performed before liposomes were extruded by 4 passages through 200 nm pore diameter polycarbonate membranes (Nuclepore, Costar, Mass., USA). Free calcein was removed from calcein encapsulated into liposomes by gel exclusion chromatography using a Sephadex G-50 column (3 cm×14 cm) and a 200 mM NaCl, 25 mM HEPES, pH 7.3 solution as the elution buffer. The final lipid concentration was determined by a phosphorus assay (Bartlett, 1959, J. Biol. Chem. 234, 466-469). Liposomes' diameter was determined by dynamic laser light scattering using a Coulter N4 Plus submicron particle sizer (Coultronics France S. A, France). Measurements were performed within a 3 nm-10000 nm size window with a fixed 90° scattered light angle.
The liposome leakage assay was carried out as described in Planck et al. (1994, J. Biol. Chem. 269, 12918-12924). The liposome stock solution was diluted to a lipid concentration of 45 μM in 1.8× assay buffer (360 mM NaCl, 36 mM sodium citrate, pH 5 and pH 7). A 1:5 serial dilution of the tested peptide was carried out in a 96-well microtiter plate by transferring 20 μl of the peptide solution from one well to the next well and diluting with 80 μl H2O. 100 μl of the liposome solution was added in each well (final lipid concentration: 25 μM) and, after 30 min at room temperature, was assayed for fluorescence at 535 nm (excitation: 485 nm) on a microtiter plate fluorescence spectrometer (WALLAC, 1420 multilabel counter Victor). These conditions are appropriate to analyze fluorescein and as close as possible to the appropriate excitation/ emission profile of calcein (495 nm /515 nm). The value for 100% leakage was obtained by addition of 1 μl of a 10% Triton X-100 solution. Leakage activity was plotted against peptide concentration.
Liposome leakage activities were analyzed on liposomes consisting of POPC and cholesterol at a molar ratio of 3:2 (mol/mol).
Complexes of ppTG1 with plasmid DNA pTG11236 were tested for liposome leakage activity on POPC/chol 3:2 liposomes.
The series of ppTG1 derivatives as they are listed in Materials and Methods was tested for liposome leakage activity on POPC/chol 3:2 liposomes at pH7.

HeLa cells = assay: Transfection in vitro, luciferase plasmid pTG11236; assay type: cell-based; conditions: for transfection / gene transfer efficiency in vitro, in words: HeLa cells, 50 ng pTG11236, increasing charge ratios, day 1
Method: Cells were plated on 24 well plates at a density of 4×10^4 (293-EBNA ) or 7×10^4 (HeLa, Renca) cells/well in DMEM supplemented with 10% FCS. The next day, the medium was replaced by 200 μl serum-free DMEM and plasmid (pTG11056 or pTG11236)/peptide complexes or plasmid/peptide/lipid complexes were prepared in 30 μl 0.9% NaCl or 5% glucose. After 20 min at room temperature these complexes were added to the cells which were then incubated for 2-3 h at 37° C. and 5% CO2 before 1 ml serum-containing DMEM was added. Approximately 20-hours later, cells were lysed by addition of 100 μl 1× Promega lysis buffer, 20 μl of the lysates were analysed for luciferase activity. Proteins were quantified with the bicinchonic acid (BCA) colorimetric method (Smith, Anal. Biochem. 150 (1985), 76-85).
In another experiment, 7×10^4 HeLa cells, seeded on 24-well plates the day before transfection, were transfected with 0.5 μg or 0.05 μg pTG11236, complexed with Lipofectin or ppTG1. The plasmid/peptide complexes were prepared in 30 μl of 5% glucose or 0.9% NaCl and added to the cells (200 μl serum-free medium) after 20 min at room temperature. Serum-containing medium was added after 3 h, the cells were harvested the next day.
A comparison of the effect on transfection efficiency of ppTG1 and JTS-1-K13 was carried out in HeLa cells. Complexes of 0.5 μg or 0.05 μg pTG11236 were formed with increasing amounts the respective peptide.
A comparison of ppTG1 and KALA was carried out in HeLa and CHO cells. 5×10^4 cells were seeded on 24 well plates. The next day, cells were transfected with 500 ng and 50 ng of pTG11236, complexed with ppTG1 or KALA in 30 μl 0.9% NaCl. The charge ratio +/− varied from 1, 2, 3, 4, 7 to 10. Cells were harvested 20 h after transfection and lysis was obtained in 100 μl Promega lysis buffer. Luciferase activity and total protein concentrations in 20 μl were determined.
HeLa cells were seeded at a density of 6×10^4 cells on 24 well plates. The next day, cells were incubated with 200 μl serum-free medium, 30 μl of plasmid (50 ng)/peptide/lipid mixtures were added and incubated for 3 h at 37° C. in 5% CO2. 1 ml of DMEM+10% FCS was then added. The next day, the medium was removed and cells were washed with 500 μl of PBS and subsequently treated with 100 μl of Promega lysis buffer. Plates were stored at −80° C. until luciferase activity was measured of 20 μl of the cell lysate. The protein assay was performed using the Pierce BCA kit.
JTS1 was dissolved to 1 mg/ml in 1 mM NaOH and mixed with DNA diluted in 5% glucose. ppTG1 was then added to this solution. The pcTG90/DOPE ppTG1 mixtures were prepared as described in Example 6. Transfection assays were performed on HeLa cells with 50 ng of plasmid as described in Example 6.
The series of ppTG1 derivatives listed in Material and Methods were tested for their gene transfer efficiencies in Hela cells. 6×10^4 cells were transfected with 50 ng pTG11236 complexed with increasing amounts of peptide. Luciferase activity was analyzed day 1 after transfection. The results are shown in FIG. 10B (ppTG20, ppTG21), FIG. 10C(ppTG25, ppTG26, ppTG27), FIG. 10D (ppTG28 to ppTG33), FIG. 10E (PEG-ppTG1 and PEG-ppTG20), FIG. 10F (ppTG22 to ppTG24) and FIG. 10G (ppTG20-D).

plasmid pTG11236 = assay: Gel retardation assay (DNA binding)
Method: 3μg of the plasmid pTG11236 were incubated with increasing amounts of the respective peptide in a final volume of 30 μl with 0.9% NaCl. After 20 min of incubation at room temperature, 6 μl 5× loading buffer (glycerol and bromphenol blue in TAE buffer) were added and 10 μl of these solutions were analyzed on a 1% agarose gel in the presence of ethidium bromide.
The ability of ppTG1 peptide to complex DNA was analyzed by gel retardation assays. […] After 20 minutes incubation at room temperature, loading buffer was added and 10 μl of the resulting solution were analyzed on a 1% agarose gel.
ppTG1 derivatives as they are indicated in Materials and Methods, were tested for their capacity to bind plasmid DNA by gel retardation assays.

[2] = pH 5 vs pH 7; cited from earlier work

Substance	liposome leakage activity, in words ([1]; pH7)	transfection / gene transfer efficiency in vitro, in words (HeLa cells)	other results
GLFRALLRLLRSLWRLLLRA [ppTG20]	–	–	toxicity in vivo, in words (B6SJL mice; i.v. injection of peptide/pTG11236 complexes): less toxic than ppTG1
GIFRAIIRIIRSIWRIIIRA [ppTG31]	slightly reduced liposome leakage activity	diminished gene transfer efficiency in vitro; also recorded: reduced the efficiency of gene transfer	–
GLFHALLHLLHSLWHLLLHA	comparable to ppTG1	strongly reduced	DNA binding, in words (plasmid pTG11236; pH5): binds plasmid DNA at pH5; also recorded: can bind DNA at pH5
Gly-Leu-Phe-Arg-Ala-Leu-Leu-Arg-Leu-Leu-Arg-Ser-Leu-Trp-Arg-Leu-Leu-Leu-Arg-Ala (GLFRALLRLLRSLWRLLLRA; also: D-amino acids, places not given here) [ppTG20-D]	retained	retained; also recorded: as efficient as ppTG1	–
GVFKAVVKVVKSVWKVVVKA [ppTG32]	diminished liposome leakage activity; also recorded: significantly reduced liposome leakage activity	diminished gene transfer efficiency in vitro	gene transfer efficiency in the lung, in words (B6SJL mice): drastically reduced gene transfer efficiency; also recorded: did not lead to detectable reporter gene expression
CGLFKALLKLLKSLWKLLLKA [ppTG23]	slightly reduced membrane destruction	–	–
Gly-Leu-Phe-Glu-Ala-Leu-Leu-Glu-Leu-Leu-Glu-Ser-Leu-Trp-Glu-Leu-Leu-Leu-Glu-Ala-Cys-Cys-Tyr-Lys-Ala-Lys-Lys-Lys-Lys-Lys-Lys-Lys-Lys--Trp-Lys-Lys-Lys-Lys-Gln-Ser (GLFEALLELLESLWELLLEACCYKAKKKKKKKKWKKKKQS; disulfide 21-22) [JTS-1-K13, JTS-1-Cystein and Cystein-K13 joined by disulfide bridge, reference compound]	impeded in calcein release	–	gene transfer efficiency in the lung, in words (B6SJL mice): low; liposome leakage activity, in words ([1]; pH5): low level release; transfection (HeLa cells; 0.05 μg plasmid DNA, FIG. 4): remains low; luciferase expression (HeLa cells; 0.5 μg pTG11236 complexed with 1.5 μg peptide): high level of luciferase expression
GIFKAIIKIIKSIWKIIIKA [ppTG30]	–	diminished gene transfer efficiency in vitro; also recorded: reduced the efficiency of gene transfer	–
WEAKLAKALAKALAKHLAKALAKALKACEA [reference compound]	could not liberate calcein	–	gene transfer efficiency in the lung, in words (B6SJL mice): undetectable; also recorded: inefficient; liposome leakage activity, in words ([1]; pH5): could not liberate calcein; gene transfer at optimal charge ratio lower than for ppTG1 (HeLa cells; HeLa, 500 ng pTG11236): 4 fold
GVFRAVVRVVRSVWRVVVRA [ppTG33]	diminished liposome leakage activity; also recorded: significantly reduced liposome leakage activity	diminished gene transfer efficiency in vitro	–
CGLFKALLKLLKSLWKLLLKAC (cysteine pairing not given here) [ppTG24]	slightly reduced membrane destruction	–	–
GLFRRLLRLLRRLWRLLLRA [ppTG29]	slightly reduced liposome leakage activity	comparable to ppTG1 and ppTG20; also recorded: did not change transfection efficiencies	–
GLFKKLLKLLKKLWKLLLKA [ppTG28]	slightly reduced liposome leakage activity	comparable to ppTG1 and ppTG20; also recorded: did not change transfection efficiencies	–
GLFEALLELLESLWELLLEA [reference compound]	reduced	–	lysis of calcein containing phosphatidylcholine liposomes [2]: capable of lysing calcein containing phosphatidylcholine liposomes at pH 5, more efficiently than at a pH 7; liposome leakage activity, in words ([1]; pH5): high lysis activity; retardation of plasmid DNA (plasmid pTG11236; 3 μg pTG11236 and 0.1 μg to 10 μg peptide): not observed
